Laboratory results from US7691624B2, “Cancer cell detecting devices” (Academia Sinica, priority 2003, dated 2010).

Key:
[1] = system: DNA quadruplexes; test: CD analysis of DNA quadruplexes and their complexes; assay type: binding; conditions: eight DNA quadruplexes
Excerpt: (§1) Eight DNA quadruplexes and their complexes with compound 2 were subjected to CD analysis. CD spectra were averaged 10 scans on a Jasco J-715 spectropolarimeter with a 2 nm bandwidth. The scan speed was 50 nm/min and the step resolution was 0.2 nm.

[2] = system: Hum24 quadruplex; test: Temperature-dependent CD analysis; assay type: binding, human
Excerpt: as §1
Further, Hum24 and its complexes with compounds 2, 4, 6, and 8 were subjected to temperature-dependent CD analysis.

[3] = system: tested cancer cells (CL1-1, H1299, hTERT-BJ, Ca9-22, HeLa, KJ-1); test: Cancer cell diagnosis by wide-field fluorescence microscopy; assay type: cell-based, human; conditions: each type of tested cancer cells; 0.1 μM, 3-6 hours
Method: A wide-field fluorescence microscopy was custom made for diagnosing cancer cells. The microscopy consists of an Ar^+ laser (Coherent Inc. Santa Clara, Calif.) as the light source, a sensitive cooled charged-coupled device (CCD) camera (DV465-UV, Andor Technology, South Windsor, Conn.) for imaging, and two avalanche photodiodes (APDs) for transient photoluminescence measurement. Excitation and imaging were conducted by an oil immersion microscope objective with a numerical aperture of 1.3. A dichroism mirror (Omega) was used to direct the fluorescence into the CCD camera. A holographic notch filter (Oriel) was used to block the backscattered laser light. Images of 250×250 pixels were recorded at a high speed. The imaged area was 50×50 μm^2 and the spatial resolution was about 2 pixels.
The following cells were tested: CL1-1 human lung cancer cells, H1299 lung cancer cells, hTERT-BJ lung cancer cells, Ca9-22 oral cancer cells, HeLa cervical cancer cells, KJ-1 nasopharyngeal cancer cells, HaCaT keratinocyte cells, Detroit-551 skin normal cells, IMR-90 lung normal cells, and BJ-1 lung fibroblast cells. Specifically, cells were incubated with 0.1 μM of compound 2 in a culture medium for 3-6 hours. The non-fixed cells were washed three times with phosphate-buffered saline and then studied under the wide-field fluorescence microscope.

[4] = system: CL1-0 cancer cells; test: Stained cells spread onto cover slip, fluorescent cells counted; assay type: cell-based
Method: (§2) Further, the role of the ratio of the cells stained by Compound 2/AO in cancer diagnosis was studied. Specifically, CL1-0 cancer cells, NIH3T3 normal cells, and their 1:10 mixture were respectively stained with 0.02 μM AO and 1.5 μM Compound 2 for 5 minutes in eppendorfs. Each sample was then taken from the eppendorf and spread onto a cover slip. Fluorescence emissions were recorded by a color camera upon an LED illumination. […] A statistical histogram of the ratio of the cell stained with Compound 2/AO to the ratio of the CL1-0 cells to the sum of NIH3T3 and CL1-0 cells was plotted. Each spot on the histogram represented an average of 5-10 measurements from a single sample.

[5] = system: NIH3T3 normal cells; test: as above; assay type: cell-based; conditions: 1.5 μM Compound 2, 5 minutes, LED
Method: as §2

[6] = system: mixture of NIH3T3 normal cells and CL1-0 cancer cells with cell ratio of 10:1; test: as above; assay type: cell-based; conditions: 1.5 μM Compound 2, 5 minutes, LED
Method: as §2

[7] = system: NIH3T3 normal cells; test: Cancer cell diagnosis in a tube; assay type: cell-based; conditions: NIH3T3 normal cells alone
Excerpt: (§3) NIH3T3 normal cells and a mixture of NIH3T3 normal cells and CL1-0 cancer cells with a cell ratio of 100:1 were respectively stained with Compound 2 and allowed to flow through a tube. The fluorescence emission upon excitation was monitored. […] In other words, this method can be used for early detection of cancer cells when cancer cells have a low concentration in a sample. For example, this method can be used to identify patients at risk of developing cancer, who should consider further examination by a physician.

[8] = system: mixture of NIH3T3 normal cells and CL1-0 cancer cells with a cell ratio of 100:1; test: Cancer cell diagnosis in a tube; assay type: cell-based; conditions: NIH3T3:CL1-0 100:1
Excerpt: as §3

C[n+]1ccc(C=Cc2ccc3[nH]c4ccc(C=Cc5cc[n+](C)cc5)cc4c3c2)cc1.[I-].[I-] [Compound 2, 3,6-bis-(2-(1-methylpyridinium-4-yl)-vinyl)-9H-carbazole diiodide]
changes in the CD spectra of DNA quadruplexes before and after compound binding [1]: No appreciable changes | melting temperature of Hum24 quadruplex in the presence of compound [2]: increased | percentage of cells exhibiting bright fluorescence in the nucleus [3]: more than 70% | number of stained cells showing fluorescence ([4]; 1.5 μM Compound 2, 5 minutes, cover slip, LED): ~22 | fluorescence brightness in cancer cells versus normal cells ([4]; 1.5 μM, 5 minutes, CL1-0 versus NIH3T3, images): brighter fluorescence of Compound 2 in cancer cells than in normal cells | number of stained cells showing fluorescence [5]: 4 | number of stained cells showing fluorescence [6]: 7 | fluorescence observed from stained cells flowing through a tube [7]: only weak fluorescence | fluorescence observed from stained cells flowing through a tube [8]: bright fluorescence
